The numbers were not newly measured in patent publication US20200352905A1, “6-(2,4-DICHLOROPHENYL)-5-[4-[(3S)-1-(3-FLUOROPROPYL)PYRROLIDIN-3-YL]OXYPHENYL]-8,9-DIHYDRO-7H-BENZO[7]ANNULENE-2-CARBOXYLIC ACID FOR USE IN METASTATIC OR ADVANCED BREAST CANCER PATIENTS” (SANOFI, priority 2019, published 2020), which cites them from elsewhere.

One data set concerns CYP2C8. The settings on record: substrate dasabuvir; 200 mg QD (3 days) then BID (21 days); cited from earlier work.
For another data set, the system named is CYP3A. The settings on record: victim Quetiapine; 200 mg TID (26 days); cited from earlier work.

As to `NC(=O)N1c2ccccc2C=Cc2ccccc21` [Carbamazepine], the “Max % of AUC decrease or CL increase” value in the data set with CYP2C8 is recorded as 70.3%. Also, in the data set with CYP3A, the “% of AUC decrease” value is listed as 86.6% and the “% oral CL increase” value is recorded as 643.1%.
